# Molecular target: T1, α-amylase
# T1 construct: PDB 4W93 was used for docking only
# Test: iodine-starch absorbance assay, […] nm
# Assay type: biochemical
# Settings: soluble starch substrate, 0.1 M sodium phosphate buffer, 37 °C, 15 min preincubation; read-out: α-Amylase inhibition activity IC50 (μg/mL) / Pahang (PFP)
smiles,measurement,value
"COc1cc2ccc(=O)oc2cc1O [compound 1, scopoletin]",IC50,52 ± 130 nM

# Reference: paper PMC6566874, “Comparative study of the antidiabetic potential of Paederia foetida twig extracts and compounds from two different locations in Malaysia” (Pharmaceutical Biology, 2019)
